The values that follow come from publication PMC3556092, “Cellular responses induced by Cu(II) quinolinonato complexes in human tumor and hepatic cells” (Chemistry Central Journal, 2012).

Assay [1] has as its system A549 lung carcinoma cells. In words: In vitro cytotoxicity, MTT assay, A549. The assay is classed as cell-based, human. The settings on record: 24 h, read-out: IC50 ± SD, A549. How it is done: Figure S1. […] The cells were plated at 96-well dishes and cultured according manufacturer instructions. The tested compounds were applied to the cells for 24 h in concentrations ranging from 0.01 to 50 µM. The tested compounds were applied to the cells for 24 h. The cytotoxicity was assessed by the MTT test, measurements were performed in triplicate, and each cytotoxicity experiment was repeated three times. The data are expressed as IC50 ± SD (μM).

Assay [2] concerns HeLa cervix epitheloid carcinoma cells. Briefly: In vitro cytotoxicity, MTT assay, HeLa. The assay is classed as cell-based, human. To be noted: 24 h, read-out: IC50 ± SD, HeLa. How it is done: Figure S2. […] The cells were plated at 96-well dishes and cultured according manufacturer instructions. The tested compounds were applied to the cells for 24 h in concentrations ranging from 0.01 to 50 µM. The tested compounds were applied to the cells for 24 h. The cytotoxicity was assessed by the MTT test, measurements were performed in triplicate, and each cytotoxicity experiment was repeated three times. The data are expressed as IC50 ± SD (μM).

In assay [3] the test system is G361 malignant melanoma cells. Briefly: In vitro cytotoxicity, MTT assay, G361. The format is cell-based, human. The settings on record: 24 h, read-out: IC50 ± SD, G361. How it is done:
Figure S3. […] The cells were plated at 96-well dishes and cultured according manufacturer instructions. The tested compounds were applied to the cells for 24 h in concentrations ranging from 0.01 to 50 µM. The tested compounds were applied to the cells for 24 h. The cytotoxicity was assessed by the MTT test, measurements were performed in triplicate, and each cytotoxicity experiment was repeated three times. The data are expressed as IC50 ± SD (μM).

Assay [4] deals with A2780 ovarian carcinoma cells. In words: In vitro cytotoxicity, MTT assay, A2780. The format is cell-based, human. To be noted: 24 h, read-out: IC50 ± SD, A2780. How it is done:
Figure S4. […] The cells were plated at 96-well dishes and cultured according manufacturer instructions. The tested compounds were applied to the cells for 24 h in concentrations ranging from 0.01 to 50 µM. The tested compounds were applied to the cells for 24 h. The cytotoxicity was assessed by the MTT test, measurements were performed in triplicate, and each cytotoxicity experiment was repeated three times. The data are expressed as IC50 ± SD (μM).

The subject of assay [5] is A2780cis cisplatin-resistant ovarian carcinoma cells. Briefly: In vitro cytotoxicity, MTT assay, A2780cis. The format is cell-based, human. To be noted: 24 h, MTT; read-out: IC50 ± SD, A2780cis. How it is done: Figure S5. […] The cells were plated at 96-well dishes and cultured according manufacturer instructions. The tested compounds were applied to the cells for 24 h in concentrations ranging from 0.01 to 50 µM. The tested compounds were applied to the cells for 24 h. The cytotoxicity was assessed by the MTT test, measurements were performed in triplicate, and each cytotoxicity experiment was repeated three times. The data are expressed as IC50 ± SD (μM).

Assay [6] has as its system LNCaP androgen-sensitive prostate adenocarcinoma cells. Briefly: In vitro cytotoxicity, MTT assay, LNCaP. The assay is classed as cell-based, human. The settings on record: 24 h, read-out: IC50 ± SD, LNCaP. How it is done: Figure S6. […] The cells were plated at 96-well dishes and cultured according manufacturer instructions. The tested compounds were applied to the cells for 24 h in concentrations ranging from 0.01 to 50 µM. The tested compounds were applied to the cells for 24 h. The cytotoxicity was assessed by the MTT test, measurements were performed in triplicate, and each cytotoxicity experiment was repeated three times. The data are expressed as IC50 ± SD (μM).

Assay [7] has as its system THP-1 monocytic leukemia cells. More on the design: method as in PMID 15139770. The settings on record: cited from earlier work.
Assay [8] deals with glucocorticoid receptor (GR) transcriptional activity. To be noted: 24 h; complexes 10 nM – 5 μM; DEX 10 pM – 100 nM.

For the molecule `N.N.[Cl][Pt][Cl]` [cisplatin, reference compound], the IC50 in assay [1] came to 25.8 ± 7.1 µM; in assay [2], 10 ± 2.6 µM; in assay [3] it was 3.4 ± 0.1 µM; in assay [4] it was 12 ± 0.8 µM; in assay [5], 27 ± 4.6 µM; in assay [6] it was 3.8 ± 1.5 µM. Further, the IC50 in assay [7] is 2000 nM.
On to `C[C@@H]1C[C@H]2[C@@H]3CCC4=CC(=O)C=C[C@]4(C)[C@@]3(F)[C@@H](O)C[C@]2(C)[C@@]1(O)C(=O)CO` [DEX, dexamethasone], for which the “luciferase activity in AZ-GR cells” value in assay [8] is reported as “strongly, dose-dependently induced”.
